In brackets after ≈: the same amount, converted by molar mass.
Each molecule was assayed on E. coli (assay: Bacterial susceptibility testing, MIC by broth microdilution (CLSI)). Conditions: Escherichia coli, read-out: E. coli MIC, broth microdilution, 35° C., 18-24 h.
`C[C@@H](CC#N)NCC(Cc1nc[nH]c(=O)c1O)c1ccc(C#Cc2ccc(CN3CCOCC3)cc2)cc1` (single isomer, unassigned) [Compound 98] showed an MIC of under 1 µg/mL. `C[C@@H](CC#N)NCC(Cc1ncnc(O)c1O)c1ccc(C#Cc2ccc(CN3CCOCC3)cc2)cc1` (single isomer, unassigned) [Compound 99] showed an MIC of under 1 µg/mL. `C[C@H](CC#N)NCC(Cc1ncnc(O)c1O)c1ccc(C#Cc2ccc(CN3CCOCC3)cc2)cc1` (single isomer, unassigned) [Compound 100] gave an MIC of under 1 µg/mL. `O=c1[nH]cnc(C[C@@H](CNCC(F)F)c2ccc(C#Cc3ccc(CN4CCOCC4)cc3)cc2)c1O` (single isomer, unassigned) [Compound 116] gave an MIC of 1 to 8 µg/mL (≈ 1.97 to 15.7 µM). `O=c1[nH]cnc(C[C@H](CNCC(F)F)c2ccc(C#Cc3ccc(CN4CCOCC4)cc3)cc2)c1O` (single isomer, unassigned) [Compound 117] gave an MIC of under 1 µg/mL. With `O=c1[nH]cnc(CC(CN[C@@H]2CCOC2)c2ccc(C#Cc3ccc(CN4CCOCC4)cc3)cc2)c1O` (single isomer, unassigned) [Compound 162] the MIC was 1 to 8 µg/mL (≈ 1.94 to 15.5 µM). Work on `C[C@H](CO)NCC(Cc1nc[nH]c(=O)c1O)c1ccc(C#Cc2ccc(CN3CCOCC3)cc2)cc1` (single isomer, unassigned) [Compound 170] yielded an MIC of 1 to 8 µg/mL (≈ 1.99 to 15.9 µM). Molecule `C[C@@H](CF)NCC(Cc1nc[nH]c(=O)c1O)c1ccc(C#Cc2ccc(CNC3CCS(=O)(=O)C3)cc2)cc1` (single isomer, unassigned) [Compound 178] has an MIC of 1 to 8 µg/mL (≈ 1.81 to 14.5 µM). For `CC(=O)N1CC[C@H](NCC(Cc2nc[nH]c(=O)c2O)c2ccc(C#Cc3ccc(CN4CCOCC4)cc3)cc2)C1` (single isomer, unassigned) [Compound 182], the MIC was 1 to 8 µg/mL (≈ 1.8 to 14.4 µM). `O=c1[nH]cnc(CC(CN[C@@H]2CCS(=O)(=O)C2)c2ccc(C#Cc3ccc(CN4CCOCC4)cc3)cc2)c1O` (single isomer, unassigned) [Compound 186] was tested, and the MIC was under 1 µg/mL. In the case of `O=c1[nH]cnc(CC(CN[C@H]2CCS(=O)(=O)C2)c2ccc(C#Cc3ccc(CN4CCOCC4)cc3)cc2)c1O` (single isomer, unassigned) [Compound 188], the MIC was under 1 µg/mL. Molecule `O=c1[nH]cnc(C[C@@H](CN2CC(F)C2)c2ccc(C#Cc3ccc(CN4CCOCC4)cc3)cc2)c1O` (single isomer, unassigned) [Compound 215] has an MIC of under 1 µg/mL. `O=c1[nH]cnc(C[C@H](CN2CC(F)C2)c2ccc(C#Cc3ccc(CN4CCOCC4)cc3)cc2)c1O` (single isomer, unassigned) [Compound 216] gave an MIC of under 1 µg/mL. With `COC1CN(Cc2ccc(C#Cc3ccc([C@@H](CO)Cc4nc[nH]c(=O)c4O)cc3)cc2)C1` (single isomer, unassigned) [Compound 217] the MIC was under 1 µg/mL. Work on `COC1CN(Cc2ccc(C#Cc3ccc([C@H](Cc4nc[nH]c(=O)c4O)CN4CC(C#N)C4)cc3)cc2)C1` (single isomer, unassigned) [Compound 218] yielded an MIC of under 1 µg/mL. `COC1CN(Cc2ccc(C#Cc3ccc([C@@H](Cc4nc[nH]c(=O)c4O)CN(C)C4CC4)cc3)cc2)C1` (single isomer, unassigned) [Compound 219] showed an MIC of under 1 µg/mL. In the case of `COC1CN(Cc2ccc(C#Cc3ccc([C@H](Cc4nc[nH]c(=O)c4O)CN(C)C4CC4)cc3)cc2)C1` (single isomer, unassigned) [Compound 220], the MIC was under 1 µg/mL. For `COC1CN(Cc2ccc(C#Cc3ccc([C@](C)(CNC4CC4)Cc4nc[nH]c(=O)c4O)cc3)cc2)C1` (single isomer, unassigned) [Compound 227], the MIC was 1 to 8 µg/mL (≈ 2.01 to 16 µM). `COC1CN(Cc2ccc(C#Cc3ccc([C@@](C)(CNC4CC4)Cc4nc[nH]c(=O)c4O)cc3)cc2)C1` (single isomer, unassigned) [Compound 228] gave an MIC of under 1 µg/mL. Work on `O=c1[nH]cnc(C[C@@H](CN2CC(O)C2)c2ccc(C#Cc3ccc(CN4CCOCC4)cc3)cc2)c1O` (single isomer, unassigned) [Compound 229] yielded an MIC of 1 to 8 µg/mL (≈ 2 to 16 µM). `O=c1[nH]cnc(C[C@H](CN2CC(O)C2)c2ccc(C#Cc3ccc(CN4CCOCC4)cc3)cc2)c1O` (single isomer, unassigned) [Compound 230] showed an MIC of under 1 µg/mL. For `N#CC1CN(C[C@H](Cc2nc[nH]c(=O)c2O)c2ccc(C#Cc3ccc(CN4CC[C@H](C#N)C4)cc3)cc2)C1` (single isomer, unassigned) [Compound 235], the MIC was under 1 µg/mL. For `N#CC1CN(C[C@@H](Cc2nc[nH]c(=O)c2O)c2ccc(C#Cc3ccc(CN4CC[C@H](C#N)C4)cc3)cc2)C1` (single isomer, unassigned) [Compound 236], the MIC was under 1 µg/mL. Molecule `O=c1[nH]cnc(C[C@H](CNCCCF)c2ccc(C#Cc3ccc(CN4CCOCC4)cc3)cc2F)c1O` (single isomer, unassigned) [Compound 237] has an MIC of under 1 µg/mL. `COC1CN(Cc2ccc(C#Cc3ccc(C(CN[C@@H](C)CF)Cc4nc[nH]c(=O)c4O)c(F)c3)cc2)C1` (single isomer, unassigned) [Compound 238] gave an MIC of under 1 µg/mL. `C[C@@H](CF)NCC(Cc1nc[nH]c(=O)c1O)c1ccc(C#Cc2ccc(CN3CC4COCC4C3)cc2)cc1F` (single isomer, unassigned) [Compound 239] was tested, and the MIC was under 1 µg/mL. With `O=c1[nH]cnc(C[C@H](CO)c2ccc(C#Cc3ccc(CN(CCO)[C@H]4CCOC4)cc3)cc2)c1O` (single isomer, unassigned) [Compound 243] the MIC was under 1 µg/mL. `C[C@H](O)CNC[C@@H](Cc1nc[nH]c(=O)c1O)c1ccc(C#Cc2ccc(CN3CCOCC3)cc2)cc1` (single isomer, unassigned) [Compound 245] gave an MIC of under 1 µg/mL. `C[C@H](O)CNC[C@H](Cc1nc[nH]c(=O)c1O)c1ccc(C#Cc2ccc(CN3CCOCC3)cc2)cc1` (single isomer, unassigned) [Compound 246] was tested, and the MIC was 1 to 8 µg/mL (≈ 1.99 to 15.9 µM).

Same assay, conditions: broth microdilution, 35° C., 18-24 h
With `CO[C@@H]1CCN(Cc2ccc(C#Cc3ccc(C(CNCC(C)F)Cc4nc[nH]c(=O)c4O)cc3)cc2)C1` (single isomer, unassigned) [Compound 136] the “E. coli MIC” value was “D (D: >32 μg/mL)”. In the case of `CO[C@@H]1CCN(Cc2ccc(C#Cc3ccc(C(CNCC(C)F)Cc4nc[nH]c(=O)c4O)cc3)cc2)C1` (single isomer, unassigned) [Compound 137], the “E. coli MIC” value was “B (B: >1 μg/mL to ≤8.0 μg/mL)”. With `O=c1[nH]cnc(CC(CN[C@@H]2CCOC2)c2ccc(C#Cc3ccc(CN4CCOCC4)cc3)cc2)c1O` (single isomer, unassigned) [Compound 163] the “E. coli MIC” value was “A (A: ≤1 μg/mL)”. `C[C@@H](CO)NCC(Cc1nc[nH]c(=O)c1O)c1ccc(C#Cc2ccc(CN3CCOCC3)cc2)cc1` (single isomer, unassigned) [Compound 168] was tested, and the “E. coli MIC” value was “B (B: >1 μg/mL to ≤8.0 μg/mL)”. In the case of `C[C@@H](CO)NCC(Cc1nc[nH]c(=O)c1O)c1ccc(C#Cc2ccc(CN3CCOCC3)cc2)cc1` (single isomer, unassigned) [Compound 169], the “E. coli MIC” value was “A (A: ≤1 μg/mL)”. For `C[C@H](CO)NCC(Cc1nc[nH]c(=O)c1O)c1ccc(C#Cc2ccc(CN3CCOCC3)cc2)cc1` (single isomer, unassigned) [Compound 171], the “E. coli MIC” value was “A (A: ≤1 μg/mL)”. In the case of `CC(=O)N1CC[C@H](NCC(Cc2nc[nH]c(=O)c2O)c2ccc(C#Cc3ccc(CN4CCOCC4)cc3)cc2)C1` (single isomer, unassigned) [Compound 183], the “E. coli MIC” value was “A (A: ≤1 μg/mL)”. In the case of `CC(=O)N1CC[C@@H](NCc2ccc(C#Cc3ccc(C(CO)Cc4nc[nH]c(=O)c4O)cc3)cc2)C1` (single isomer, unassigned) [Compound 233], the “E. coli MIC” value was “B (B: >1 μg/mL to ≤8.0 μg/mL)”. For `CC(=O)N1CC[C@@H](NCc2ccc(C#Cc3ccc(C(CO)Cc4nc[nH]c(=O)c4O)cc3)cc2)C1` (single isomer, unassigned) [Compound 234], the “E. coli MIC” value was “A (A: ≤1 μg/mL)”.

Reference: US11407740B2 (priority 2018, dated 2022)
